Test results published in patent US11020488B2, “Pyrroloquinolin compounds and methods of using same” (The Regents of the University of California, priority 2017, dated 2021).
Like-named read-outs stand apart in the source and are kept apart here.

Experiments:
[1] = tested on: PANC-1 cell line; experiment: cells; conditions: for PANC-1 cytotoxic potency (words): PANC-1 (set of b111: PANC-1 and/or OVCAR tumor cells); for fold decrease in PANC-1 potency (PP<) relative to makaluvamine J (9) / fold decrease in PANC-1 potency (PP<) relative to makaluvamine A (1): '<' in PP codes a decrease in potency
Excerpt: The task of IC50 assessment for the natural products isolated in this study against the PANC-1 tumor cells line began immediately following the purification and characterization of each pyrrolo[4,3,2-de]quinoline obtained (FIG. 3). […] However, a sample of ammosamide B (17) was obtained from the NCI Molecular Targets Laboratory. Two additional clinically used compounds, etoposide and teniposide were also run in the assay.
The soft agar disk diffusion assay, IC50 determination, and clonogenic assay were performed as previously described.

[2] = tested on: OVCAR-5; experiment: IC50 determination against OVCAR-5 ovarian cancer cell line; format: cell-based, human; conditions: for IC50: OVCAR-5, values of the text
Description: The soft agar disk diffusion assay, IC50 determination, and clonogenic assay were performed as previously described [35].

[3] = tested on: PANC-1 cell line; conditions: cited from earlier work; for IC50: read-out: PANC-1 IC50, PANC-1, literature data, refs [25], [26], [30]
[4] = tested on: HCT-116 cells; experiment: Clonogenic dose-response assay, continuous exposure; format: cell-based
Excerpt: FIG. 7 Evaluation of makaluvamine J (9) through clonogenic dose-response evaluation employing HCT-116 cells. Continuous exposure of the cells with 9 at different concentrations during periods of: 2 hr, 24 hr, or 120 hr. Efficacy is indicated when the surviving fraction is less than 0.1.
Accurate determination of the exposures required to achieve a useful in vivo therapeutic effect is the outcome being sought through clonogenic study. Illustrated here are data measuring the cytotoxic effect of makaluvamine J (9) at varying concentrations during continuous exposure. Other relevant data to be obtained in the future consists of: (a) repeating the clonogenic runs on makaluvamine acetate J (15), (b) obtaining the maximum tolerated dose (MTD) for both, and (c) assessing the pharmacokinetic behavior of these compounds measured in both plasma and tumors, (PANC-1 and OVC-5) at the MTD which will be tracked through by MS^2 data. The key measurement involved determining the required time-concentration profile to obtain a 90% kill (10% survival-S10) of tumor cells. […] At this juncture it appears that a chronic exposure for five days will be effective and the exact therapeutics regime will depend on the MTD determination data and future pharmacokinetic results.

[5] = tested on: OVCAR-3; conditions: first value of OVCAR-3/-5 cell, refs [9], [38], NCI-DTP database; cited from earlier work
[6] = tested on: KB xenografts; conditions: KB mouse model xenografts, ref [9]; cited from earlier work
[7] = tested on: OVCAR-5; conditions: second value of OVCAR-3/-5 cell, ref [9], NCI-DTP database; cited from earlier work
[8] = read-out: PANC-1 IC50, PANC-1 pancreatic tumor cell line
[9] = Homo sapiens, PANC-1, read-out: PANC-1 IC50, PANC-1 pancreatic tumor cell line

Compound: 15-O-acetyl makaluvamine J [15-O-acetyl makaluvamine J (15)]
- PANC-1 cytotoxic potency (words) [1]: most potent IC50 values
- fold decrease in PANC-1 potency (PP<) relative to makaluvamine J (9) ([1]; ratio of PANC-1 IC50): 1.5 fold
- IC50 [1, 8]: 81 nM
- IC50 [2]: 8.6 nM
- fold increase in OVCAR-5 potency over makaluvamine J (9) ([2]; ratio of OVCAR-5 IC50): 14 fold

Compound: Nc1ccn([C@@H]2O[C@H](CO)[C@@H](O)C2(F)F)c(=O)n1 [gemcitabine]
- IC50 [3]: 7200 nM

Compound: CN1CCc2cn(C)c3c2C1=CC(=O)C3=O [damirone A (5), damirone A]
- IC50 [1, 8]: 160000 nM

Compound: 9-N-acetyl makaluvamine B [9-N-acetyl makaluvamine B (14)]
- fold decrease in PANC-1 potency (PP<) relative to makaluvamine A (1) ([1]; ratio of PANC-1 IC50): > 200 fold
- IC50 [1, 8]: 91000 nM

Compound: CSc1c2c3c(n1C)C(=O)C(N)=C(Cl)C3=NCC2 [isobatzelline A]
- cytotoxicity against PANC-1 cells (words) ([3]; literature surveys): moderate cytotoxicity

Compound: Cn1cc2c3c1C(=O)C(NCCc1ccc(O)cc1)=CC3=NCC2 [makaluvamine K (10), makaluvamine K]
- fold decrease in PANC-1 potency (PP<) relative to makaluvamine A (1) ([1]; ratio of PANC-1 IC50): 1.2 fold
- fold decrease in PANC-1 potency (PP<) relative to makaluvamine J (9) ([1]; ratio of PANC-1 IC50): 10.4 fold
- IC50 [1, 8]: 560 nM

Compound: Cn1cc2c3c1C(=O)C(N/C=C/c1ccc(O)cc1)=CC3=[N+](C)CC2 [makaluvamine G (8), makaluvamine G]
- IC50 [1, 8]: 6200 nM

Compound: CN1C(=O)c2cc(C(N)=O)nc3c(N)c(Cl)c(N)c1c23 [ammosamide B (17), ammosamide B, reference compound]
- IC50 [1, 8]: 26000 nM

Compound: Cn1cc2c3c1C(=O)C(N)=CC3=NCC2 [makaluvamine A (1), makaluvamine A]
- IC50 [1, 8]: 450 nM

Compound: C[N+]1=C2C=C(NCCc3ccc(O)cc3)C(=O)c3[nH]cc(c32)CC1 [makaluvamine J (9), makaluvamine J]
- PANC-1 cytotoxic potency (words) [1]: most potent
- PANC-1 cytotoxic potency (words) ([1]; listed as 9): most potent IC50 values
- IC50 [1, 8]: 54 nM
- IC50 [2]: 120 nM
- 2S10, concentration for 90% kill (10% survival) ([4]; HCT-116, 2 h exposure, extrapolated): 3 µg/mL
- 24S10, concentration for 90% kill (10% survival) ([4]; HCT-116, 24 h exposure): 400 ng/mL
- 120S10, concentration for 90% kill (10% survival) ([4]; HCT-116, 120 h exposure): 30 ng/mL
- toxicity to HCT-116 cells ([4]; two hour dosing schedule): Little toxicity

Compound: CSc1c2ccnc3c2c(n1C)C(=O)C(N)=C3Cl [isobatzelline D]
- cytotoxicity against PANC-1 cells (words) ([3]; literature surveys): moderate cytotoxicity

Compound: O=C1C(NCc2ccc(F)cc2)=CC2=NCCc3c[nH]c1c32 [FBA-TBQ (18), 7-(4-fluorobenzylamino)-1,3,4,8-tetrahydropyrrolo[4,3,2-de]quinolin-8(1H)-one, reference compound]
- less potent than makaluvamine J (9) against PANC-1 ([1]; comparison of PANC-1 IC50 with 9): ~50%
- IC50 [5]: 950 nM
- cytotoxicity against PANC-1 cells (words) [3]: moderate cytotoxicity
- IC50 [3]: 110 nM

Compound: N=C1C(Cl)=C(N)C(=O)c2[nH]cc(C(O)CO)c21 (stereo not drawn) [secobatzelline A]
- cytotoxicity against PANC-1 cells (words) ([3]; literature surveys): moderate cytotoxicity

Compound: CN1CCc2c[nH]c3c2C1=CC(=O)C3=O [damirone B (3), damirone B]
- IC50 [1, 8]: 19000 nM

Compound: makaluvamine D [makaluvamine D (7)]
- IC50 [1, 8]: 290 nM

Compound: damirone D [damirone D (6)]
- IC50 [1, 8]: 3400 nM

Compound: makaluvamine I [reference compound]
- T/C % (tumor volume in treated/tumor volume in untreated) [6]: 34%

Compound: COc1cc([C@@H]2c3cc4c(cc3[C@@H](O[C@@H]3O[C@@H]5CO[C@@H](c6cccs6)O[C@H]5[C@H](O)[C@H]3O)[C@H]3COC(=O)[C@H]23)OCO4)cc(OC)c1O [teniposide, reference compound]
- IC50 [1, 9]: 40 nM
- IC50 [1, 8]: 41 nM

Compound: 8,15-O-diacetyl-8-hydroxy-5a,7,8a-trien-makaluvamine J
- fold decrease in PANC-1 potency (PP<) relative to makaluvamine J (9) ([1]; ratio of PANC-1 IC50): ~10 fold
- IC50 [1, 8]: 590 nM

Compound: Cn1cc2c3c1C(=O)C(NCCc1ccc(O)cc1)=CC3=[N+](C)CC2.[Cl-] [makaluvamine P (12), makaluvamine P]
- fold increase in PANC-1 potency (PP>) relative to makaluvamine H (4) ([1]; ratio of PANC-1 IC50, '>' in PP codes an increase in potency): 12.3
- IC50 [1, 8]: 300 nM

Compound: Cn1cc2c3c1C(=O)C(N)=CC3=[N+](C)CC2.O=C([O-])C(F)(F)F [makaluvamine H (4), makaluvamine H]
- fold decrease in PANC-1 potency (PP<) relative to makaluvamine A (1) ([1]; ratio of PANC-1 IC50): 7.9 fold
- IC50 [1, 8]: 3600 nM
- IC50 [5]: 960 nM
- IC50 [7]: 100 nM
- T/C % (tumor volume in treated/tumor volume in untreated) [6]: 38%

Compound: COc1cc([C@@H]2c3cc4c(cc3[C@@H](O[C@@H]3O[C@@H]5CO[C@@H](C)O[C@H]5[C@H](O)[C@H]3O)[C@H]3COC(=O)[C@H]23)OCO4)cc(OC)c1O [etoposide, reference compound]
- IC50 [1, 9]: 390 nM

Compound: Cn1cc2c3c1C(=O)C(N)=C(Cl)C3=NCC2 [isobatzelline C (19), isobatzelline C]
- cytotoxicity against PANC-1 cells (words) ([3]; literature surveys, listed as 19): relatively inactive
- cytotoxicity against PANC-1 cells (words) ([3]; literature surveys, listed as isobatzelline C): moderate cytotoxicity
- IC50 [3]: 10000 nM

Compound: C[N+]1=C2C=C(N)C(=O)c3[nH]cc(c32)CC1.[Cl-] [makaluvamine C (2), makaluvamine C]
- fold decrease in PANC-1 potency (PP<) relative to makaluvamine J (9) ([1]; ratio of PANC-1 IC50): 13.5 fold
- IC50 [1, 8]: 730 nM
- IC50 [5]: 240 nM

Compound: C[N+]1=C2C=C(N/C=C/c3ccc(O)cc3)C(=O)c3[nH]cc(c32)CC1.O=C([O-])C(F)(F)F [makaluvamine L (11), makaluvamine L]
- fold decrease in PANC-1 potency (PP<) relative to makaluvamine J (9) ([1]; ratio of PANC-1 IC50): 35.0 fold
- IC50 [1, 8]: 1900 nM
